# Tested on: ARPE-19 cells
# Assay: oxidative stress (tert-butyl hydroperoxide) cytolysis assay in ARPE-19 retinal pigment epithelial cells
# Type: cell-based
# Conditions: for inhibition of the cytotoxicity induced by t-BHP: BIZ-102 10 μM
# Protocol: In order to evaluate the potential of BIZ-101 to protective the eye from oxidative stress damage the compound was tested in a cell based assay. Oxidative stress was induced in an ARPE-19 cell line using tert-butyl hydroperoxide at different concentrations. The cellular viability was kinetically monitored and measured by analysing the plasma membrane integrity based on the incorporation of a non-permeant and fluorescent DNA intercalating agent that selectively stain cytolytic cells with comprised plasma membranes.
# (§1) The ARPE-19 cell line was seeded and cultured in DMEM-F12 medium+10% SVF for 24 hrs in a 96 well plate. Cells were pre-treated or not with either fenofibric acid (25 μM) or compound BIZ-101 (10 μM) during this 24 hr period. After 24 hrs, the different concentrations of t-butyl hydroperoxide were added in the presence of a fluorescent DNA intercalating agent for the following monitoring. Live content time-lapse imaging was performed with a sampling rate of 1 image every 2 hr over a 96 hrs period. The number of fluorescent/cytolytic cells were counted and reported during the experiment. The treatment conditions were tested in one experiment session in a triplicate format.
# Fenofibric acid was used at 25 μM and was ordered from Sigma Aldrich. The day of the pre-treatment, a 25 mM stock solution of fenofibric acid was prepared in DMSO and diluted in the complete culture medium at 25 μM. 100 μL of this solution or 100 μL of complete culture medium+0.1% DMSO replaced the 100 μL of the complete culture medium already present in the well. The day of the treatment with t-butyl hydroperoxide, a 2 times concentrated solution of fenofibric acid was freshly diluted in the complete culture medium and 50 μL of this solution or 50 μL of complete culture medium+0.2% DMSO were added to the 100 μL of the culture medium already present in the well.
# Compound BIZ-101 was tested at a final concentration of 10 μM. A 10 mM predilution was prepared in DMSO from a 10 mM stock solution. The 10 mM solution of BIZ 101 was diluted in the complete culture medium at 10 μM. 100 μL, of this solution or 100 μL of the complete culture medium+0.1% DMSO replaced the 100 μL, of the complete culture medium already present in the well. The day of the treatment with t-butyl hydroperoxide, a 2 times concentrated solution of BIZ 101 was freshly diluted in the complete culture medium and 50 μL of this solution or 50 μL of complete culture medium+0.2% DMSO were added to the 100 μL of the culture medium already present in the well.
# Preparation of the tert-butyl hydroperoxide [tBHP] solution: 0, 0.01 mM, 0.03 mM, 0.1 mM, 0.3 mM, 1 mM, 3 mM and 10 mM. A 4 times concentrated solution of tBHP was freshly diluted in the complete culture medium for each of the concentrations to be tested. 50 μL of the 4 times concentrated solution was added to the 150 μL of the cultured medium.
# In order to evaluate the potential of BIZ-102 to protect the eye from oxidative stress damage the compound was tested in a cell based assay similar to Example 24 with the following changes. The oxidative stress in the ARPE-19 cell line was induced by using 3 different concentrations of tBHP: 10 μM, 30 μM and 100 μM and BIZ-102 was tested in 2 different concentrations: 1 μM and 10 μM.
# as §1, with “with” for “with either fenofibric acid (25 μM) or”, “BIZ-102 (1 μM and 10” for “BIZ-101 (10”
# Compound BIZ-102 was tested at a final concentration of 1 and 10 μM. […]
compound,measurement,setting,value
"CCCCC/C=C\C/C=C\C/C=C\C/C=C\CCC(CC)C(=O)O (stereo not drawn) [BIZ-102, (All-Z) 2-ethyl-5,8,11,14-eicosatetraenoic Acid]",inhibition of the cytotoxicity induced by t-BHP,"10 μM t-BHP, FIG. 9A",significant inhibition
same,inhibition of the cytotoxicity induced by t-BHP,"30 μM t-BHP, FIG. 9B",significant inhibition
same,effect on retinal pigment epithelial cells during conditions of oxidative stress,overall conclusion,protective effect

# — patent publication US20190284129A1, “LIPID COMPOUNDS AND COMPOSITIONS AND THEIR OPTHALMIC USE” (BIOZEP AS, priority 2015, published 2019)
